Experimental data: the supplement of paper PMC10883282

Assays:
Assay in all cases: relative viability vs DMSO control (72 h) (fraction); higher = more viable cells
HT1080 = test system: HT1080
In short: (§1)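 After seeding at densities set for 80–90% confluence in 384-well plates, sarcoma cell lines waited 24 h before 2.5 µl of serially diluted compound was added. Source plates held 10 mM down to 0.0002 mM. Plates were incubated 72 h at 37 °C with 5% CO2, with 0.1% DMSO vehicle and a 5 µM positive control, and relative viability was taken from ATPLite as percent growth averaged over up to triplicate wells, with 1 set as full and 0 as none.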

KHOS-NP = test system: KHOS-NP
In short: as §1

RD-ES = test system: RD-ES
In short: as §1

RD = test system: RD
In short: as §1

VA-ES-BJ = test system: VA-ES-BJ
In short: as §1

Cc1cccc(-c2nn3c(c2-c2ccnc4ccc(C(N)=O)cc24)CCC3)n1 [Galunisertib]
relative viability
Settings	HT1080	KHOS-NP	RD	RD-ES	VA-ES-BJ
0.00017 µM	1.06	1.088	1.06	0.932	1.04
0.00051 µM	1.04	1.09	1.07	0.975	1
0.00152 µM	0.959	1.066	1.079	0.979	1.03
0.00457 µM	1.04	1.06	1.095	0.965	0.9974
0.01372 µM	1.04	1.06	1.081	0.979	0.983
0.04115 µM	1.01	1.07	1.09	0.9533	0.986
0.1235 µM	1.01	1.03	1.071	0.92	1.01
0.3704 µM	1.04	1.04	1.05	0.915	1.01
1.111 µM	1.04	0.999	1.08	0.913	1.07
3.333 µM	1.03	0.978	1.12	0.886	1.08
10 µM	1.02	0.976	1.13	0.894	1.11

CN1CC[C@@H](NC(=O)Nc2ccc(C#N)cc2)C[C@@H]1c1nc2ccccc2[nH]1 [Glasdegib]
relative viability
Settings	HT1080	KHOS-NP	RD	RD-ES	VA-ES-BJ
0.00017 µM	1.07	1.09	1.02	0.9823	1.07
0.00051 µM	1.091	1.1	1.03	0.963	1.07
0.00152 µM	1.112	1.1	1.05	0.9569	1.06
0.00457 µM	1.09	1.11	1.04	0.968	1.068
0.01372 µM	1.09	0.779	1.02	0.96	1.07
0.04115 µM	1.112	1.1	0.99	0.923	1.06
0.1235 µM	1.1	1.108	0.988	0.924	1.05
0.3704 µM	1.087	1.12	0.983	0.926	1.04
1.111 µM	1.07	1.11	1.02	0.924	1.01
3.333 µM	1.054	1.085	1	0.934	1.08
10 µM	1.01	1.02	1.06	0.891	1.06

CC(C)NC[C@@H](C(=O)N1CCN(c2ncnc3c2[C@H](C)C[C@H]3O)CC1)c1ccc(Cl)cc1 [Ipatasertib]
relative viability
Settings	HT1080	KHOS-NP	RD	RD-ES	VA-ES-BJ
0.00017 µM	1.1	1.1	1.03	0.9447	1.07
0.00051 µM	1.08	1.11	1.06	0.932	1.04
0.00152 µM	1.1	1.11	1.06	0.954	1.03
0.00457 µM	1.05	1.09	1.05	0.9221	1.022
0.01372 µM	1.07	1.06	1.07	0.925	0.955
0.04115 µM	1.04	1.06	1.05	0.869	0.8984
0.1235 µM	1.1	1.067	0.991	0.844	0.819
0.3704 µM	1.07	1.04	0.916	0.7432	0.666
1.111 µM	1.055	1.04	0.799	0.601	0.492
3.333 µM	0.997	0.994	0.681	0.52	0.418
10 µM	0.994	0.957	0.623	0.4354	0.368

COC(=O)[C@@]1(O)C[C@H]2O[C@]1(C)n1c3ccccc3c3c4c(c5c6ccccc6n2c5c31)C(=O)NC4 [K-252a]
relative viability
Settings	HT1080	KHOS-NP	RD	RD-ES	VA-ES-BJ
0.00017 µM	1.09	1.09	1.07	0.991	1.09
0.00051 µM	1.09	1.101	1.08	1.02	1.07
0.00152 µM	1.09	1.1	1.11	1.01	1.09
0.00457 µM	1.09	1.08	1.12	1.02	1.07
0.01372 µM	1.16	1.1	1.13	0.979	1.05
0.04115 µM	1.13	1.071	1.13	0.797	0.922
0.1235 µM	1.05	0.961	1.09	0.578	0.773
0.3704 µM	1.13	0.927	1	0.488	0.67
1.111 µM	0.683	0.286	0.507	0.175	0.381
3.333 µM	0.105	0.154	0.278	0.0819	-0.0139
10 µM	0.0141	0.0717	0.0929	0.0303	-0.0189

CCC(=O)N1CC[C@H](Nc2ncnc3c2CN(c2cnc(OC)c(C(F)(F)F)c2)CC3)C1 [Leniolisib]
relative viability
Settings	HT1080	KHOS-NP	RD	RD-ES	VA-ES-BJ
0.00017 µM	1.09	1.11	1.08	0.985	1.08
0.00051 µM	1.077	1.11	1.09	1.034	1.09
0.00152 µM	1.1	1.09	1.11	1.03	1.05
0.00457 µM	1.09	1.101	1.11	1.03	1.04
0.01372 µM	1.05	1.08	1.12	1	1.02
0.04115 µM	1.038	1.07	1.09	1.02	1.06
0.1235 µM	1.05	1.07	1.09	0.989	1.01
0.3704 µM	1.04	1.061	1.11	0.958	1
1.111 µM	1.03	1.05	1.09	0.908	0.984
3.333 µM	1.04	1.05	1.05	0.856	0.88
10 µM	0.94	0.96	0.886	0.709	0.645

C[C@]12O[C@H](C[C@]1(O)CO)n1c3ccccc3c3c4c(c5c6ccccc6n2c5c31)CNC4=O [Lestaurtinib]
relative viability
Settings	HT1080	KHOS-NP	RD	RD-ES	VA-ES-BJ
0.00017 µM	1.09	1.11	1.05	0.996	1.06
0.00051 µM	1.11	1.108	1.064	1	1.06
0.00152 µM	1.1	1.11	1.09	0.999	1.06
0.00457 µM	1.12	1.1	1.09	0.989	1.03
0.01372 µM	1.09	1.1	1.1	0.936	0.953
0.04115 µM	1.12	1.08	1.06	0.804	0.838
0.1235 µM	0.915	0.9051	1.01	0.497	0.657
0.3704 µM	0.877	0.785	0.892	0.288	0.544
1.111 µM	0.689	0.471	0.645	0.16	0.42
3.333 µM	0.185	0.205	0.326	0.0482	0.176
10 µM	0.0222	0.091	0.126	0.0633	-0.00757

N#CCNC(=O)c1ccc(-c2ccnc(Nc3ccc(N4CCOCC4)cc3)n2)cc1 [Momelotinib]
relative viability
Settings	HT1080	KHOS-NP	RD	RD-ES	VA-ES-BJ
0.00017 µM	1.03	1.09	0.971	0.9849	1.07
0.00051 µM	1.1	1.099	0.998	0.981	1.07
0.00152 µM	1.069	1.101	0.987	0.9765	1.08
0.00457 µM	1.06	1.09	1.03	0.965	1.066
0.01372 µM	1.08	1.115	0.995	0.976	1.09
0.04115 µM	1.09	1.11	1.02	0.954	1.07
0.1235 µM	1.12	1.101	1.041	0.955	1.04
0.3704 µM	1.17	1.08	1.04	0.896	1.03
1.111 µM	1.18	1.01	1.02	0.818	0.97
3.333 µM	1.25	1.05	0.994	0.84	0.987
10 µM	1.21	0.983	0.905	0.797	0.891

Cc1ccc(Nc2nccc(N(C)c3ccc4c(C)n(C)nc4c3)n2)cc1S(N)(=O)=O [Pazopanib]
relative viability
Settings	HT1080	KHOS-NP	RD	RD-ES	VA-ES-BJ
0.00017 µM	1.03	1.04	1.11	0.95	1.04
0.00051 µM	1.064	1.05	1.12	0.95	1.05
0.00152 µM	1.04	1.038	1.12	0.968	1.07
0.00457 µM	1.05	1.02	1.11	0.962	1.05
0.01372 µM	1.045	1.02	1.11	0.985	1.06
0.04115 µM	1.05	1.06	1.12	0.975	1.07
0.1235 µM	1.03	1.03	1.12	0.96	1.08
0.3704 µM	1.03	1.01	1.13	0.973	1.12
1.111 µM	1.05	0.99	1.12	1	1.14
3.333 µM	1.07	0.968	1.16	0.9311	1.12
10 µM	1.07	0.719	1.1	0.727	1.06
